Data reported in the NIST ThermoML archive (doi:10.1016/j.tca.2014.10.001).
± gives the expanded uncertainty stated by the source.

Assay: mn = molality of the nth substance listed, in mol/kg
Conditions: 100 kPa, Liquid; for electrical conductivity: Alternating current cell with electrodes; for speed of sound: Frequency=3 MHz, Sing-around technique in a fixed-path interferometer; for mass density: Vibrating tube method

CCCCn1cc[n+](C)c1C.F[B-](F)(F)F [1-butyl-2,3-dimethylimidazolium tetrafluoroborate] + O
Conditions | electrical conductivity [S/m] | mass density [kg/m3] | speed of sound [m/s]
288.15 K, m1 = 0.03 | 0.229 ± 0.018 | – | –
288.15 K, m1 = 0.0308 | – | 1000.29 ± 0.11 | 1471.8 ± 1.2
288.15 K, m1 = 0.0312 | 0.236 ± 0.019 | – | –
288.15 K, m1 = 0.0324 | 0.245 ± 0.02 | – | –
288.15 K, m1 = 0.0338 | 0.256 ± 0.021 | – | –
288.15 K, m1 = 0.0353 | 0.265 ± 0.021 | – | –
288.15 K, m1 = 0.0369 | 0.276 ± 0.022 | – | –
288.15 K, m1 = 0.0386 | 0.288 ± 0.023 | – | –
288.15 K, m1 = 0.0406 | 0.303 ± 0.024 | – | –
288.15 K, m1 = 0.04107 | – | 1000.68 ± 0.11 | 1474.2 ± 1.2
288.15 K, m1 = 0.0427 | 0.319 ± 0.026 | – | –
288.15 K, m1 = 0.0451 | 0.336 ± 0.027 | – | –
288.15 K, m1 = 0.0477 | 0.355 ± 0.028 | – | –
288.15 K, m1 = 0.0507 | 0.375 ± 0.03 | – | –
288.15 K, m1 = 0.05137 | – | 1001.08 ± 0.11 | 1476.5 ± 1.2
288.15 K, m1 = 0.0541 | 0.399 ± 0.032 | – | –
288.15 K, m1 = 0.058 | 0.427 ± 0.034 | – | –
288.15 K, m1 = 0.06162 | – | 1001.46 ± 0.11 | 1478.6 ± 1.2
288.15 K, m1 = 0.0624 | 0.457 ± 0.037 | – | –
288.15 K, m1 = 0.0677 | 0.491 ± 0.039 | – | –
288.15 K, m1 = 0.07 | 0.508 ± 0.041 | – | –
288.15 K, m1 = 0.0725 | 0.526 ± 0.042 | – | –
288.15 K, m1 = 0.0752 | 0.542 ± 0.043 | – | –
288.15 K, m1 = 0.0781 | 0.564 ± 0.045 | – | –
288.15 K, m1 = 0.0812 | 0.586 ± 0.047 | – | –
288.15 K, m1 = 0.08198 | – | 1002.23 ± 0.11 | 1482.5 ± 1.2
288.15 K, m1 = 0.0846 | 0.608 ± 0.049 | – | –
288.15 K, m1 = 0.0882 | 0.634 ± 0.051 | – | –
288.15 K, m1 = 0.0922 | 0.661 ± 0.053 | – | –
288.15 K, m1 = 0.0966 | 0.688 ± 0.055 | – | –
288.15 K, m1 = 0.1014 | 0.713 ± 0.057 | – | –
288.15 K, m1 = 0.1024 | – | 1002.99 ± 0.11 | 1485.2 ± 1.2
288.15 K, m1 = 0.1068 | 0.745 ± 0.06 | – | –
288.15 K, m1 = 0.1127 | 0.772 ± 0.062 | – | –
288.15 K, m1 = 0.1193 | 0.806 ± 0.065 | – | –
288.15 K, m1 = 0.1231 | – | 1003.74 ± 0.11 | 1486.4 ± 1.2
288.15 K, m1 = 0.1267 | 0.846 ± 0.068 | – | –
288.15 K, m1 = 0.1352 | 0.891 ± 0.071 | – | –
288.15 K, m1 = 0.1436 | – | 1004.47 ± 0.11 | 1487.1 ± 1.2
288.15 K, m1 = 0.1448 | 0.941 ± 0.075 | – | –
288.15 K, m1 = 0.1559 | 0.997 ± 0.08 | – | –
288.15 K, m1 = 0.164 | – | 1005.19 ± 0.11 | 1487.7 ± 1.2
288.15 K, m1 = 0.1688 | 1.06 ± 0.085 | – | –
288.15 K, m1 = 0.1841 | 1.14 ± 0.091 | – | –
288.15 K, m1 = 0.1846 | – | 1005.91 ± 0.11 | 1488.2 ± 1.2
288.15 K, m1 = 0.2025 | 1.23 ± 0.098 | – | –
288.15 K, m1 = 0.205 | – | 1006.62 ± 0.11 | 1488.7 ± 1.2
298.15 K, m1 = 0.0306 | 0.247 ± 0.02 | – | –
298.15 K, m1 = 0.031 | 0.249 ± 0.02 | – | –
298.15 K, m1 = 0.0323 | 0.259 ± 0.021 | – | –
298.15 K, m1 = 0.0337 | 0.27 ± 0.022 | – | –
298.15 K, m1 = 0.0352 | 0.28 ± 0.022 | – | –
298.15 K, m1 = 0.0368 | 0.291 ± 0.023 | – | –
298.15 K, m1 = 0.0387 | 0.305 ± 0.025 | – | –
298.15 K, m1 = 0.0407 | 0.319 ± 0.025 | – | –
298.15 K, m1 = 0.0429 | 0.334 ± 0.027 | – | –
298.15 K, m1 = 0.0454 | 0.351 ± 0.028 | – | –
298.15 K, m1 = 0.0472 | 0.366 ± 0.029 | – | –
298.15 K, m1 = 0.0491 | 0.379 ± 0.03 | – | –
298.15 K, m1 = 0.0513 | 0.395 ± 0.032 | – | –
298.15 K, m1 = 0.0536 | 0.413 ± 0.033 | – | –
298.15 K, m1 = 0.0562 | 0.432 ± 0.035 | – | –
298.15 K, m1 = 0.0575 | 0.441 ± 0.035 | – | –
298.15 K, m1 = 0.059 | 0.45 ± 0.036 | – | –
298.15 K, m1 = 0.0605 | 0.462 ± 0.037 | – | –
298.15 K, m1 = 0.0621 | 0.472 ± 0.038 | – | –
298.15 K, m1 = 0.0637 | 0.485 ± 0.039 | – | –
298.15 K, m1 = 0.0655 | 0.498 ± 0.04 | – | –
298.15 K, m1 = 0.0674 | 0.513 ± 0.041 | – | –
298.15 K, m1 = 0.0694 | 0.528 ± 0.042 | – | –
298.15 K, m1 = 0.0715 | 0.54 ± 0.043 | – | –
298.15 K, m1 = 0.0737 | 0.557 ± 0.045 | – | –
298.15 K, m1 = 0.0761 | 0.575 ± 0.046 | – | –
298.15 K, m1 = 0.0786 | 0.595 ± 0.048 | – | –
298.15 K, m1 = 0.0813 | 0.615 ± 0.049 | – | –
298.15 K, m1 = 0.0842 | 0.636 ± 0.051 | – | –
298.15 K, m1 = 0.0874 | 0.658 ± 0.053 | – | –
298.15 K, m1 = 0.0907 | 0.682 ± 0.055 | – | –
298.15 K, m1 = 0.0943 | 0.708 ± 0.057 | – | –
298.15 K, m1 = 0.0983 | 0.735 ± 0.059 | – | –
298.15 K, m1 = 0.1026 | 0.761 ± 0.061 | – | –
